Results: paper PMC10714400, “Antimicrobial Peptide–Peptoid Hybrids with and without Membrane Disruption” (ACS Infectious Diseases, 2023)
Converted amounts (≈) assume the structure as drawn. “Also recorded” adds a separate entry of the source. Read-outs that look alike come from different tables or passages of the source. Where a SMILES comes first, the peptide text is derived from it. [ ]: non-standard residue; d: D form. Nleu = CC(C)CNCC(=O)O; Nlys = NCCCCNCC(=O)O

Assays:
[1] = Circular dichroism, α-helical content; assay type: physicochemical; conditions: 0.1 mg/mL; for CD %α with 5 mM DPC: 10 mM phosphate buffer pH 7.4, 5 mM DPC; for CD %α with 20% TFE: 10 mM phosphate buffer pH 7.4, 20% TFE
E. coli W3110 = experiment: Time–kill assay; assay type: cell-based, Escherichia coli
Text: Figure 1 Killing profile of selected compounds on bacteria a) against E. coli W3110 measured in full MH at pH 7.4, b) against P. aeruginosa PAO1 in full MH at pH 7.4, c) against E. coli W3110 in diluted MH at pH 8.5, and d) against P. aeruginosa PAO1 in dilute MH at pH 8.5. The assay was repeated twice in triplicate, and the data represent the mean ± SD, n = 6.

K. pneumoniae NCTC418 = conditions: for MIC K. pneumoniae NCTC418 […] 7.4 / MIC K. pneumoniae NCTC418 […] 8.5: […] MH; for MIC K. pneumoniae NCTC418, full MH at pH 7.4 / MIC K. pneumoniae NCTC418 […] 7.4 / MIC K. pneumoniae NCTC418 Full MH 7.4: pH 7.4; for MIC K. pneumoniae NCTC418, full MH at pH 8.5 / MIC K. pneumoniae NCTC418 […] 8.5 / MIC K. pneumoniae NCTC418 Full MH 8.5: pH 8.5
Method in brief: (§1)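 MTT added (20–30 min, room temperature); MIC read by eye as lowest concentration inhibiting visible growth (yellow). Polymyxin B positive control from 16 μg/mL.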

A. baumannii ATCC19606 = conditions: for MIC A. baumannii ATCC19606 […] 7.4 / MIC A. baumannii ATCC19606 […] 8.5 / MIC A. baumannii ATCC19606 Full MH 7.4 / MIC A. baumannii ATCC19606 Full MH 8.5: Table S2; for MIC A. baumannii ATCC19606 […] 7.4 / MIC A. baumannii ATCC19606 […] 8.5: […] MH; for MIC A. baumannii ATCC19606, full MH at pH 7.4 / MIC A. baumannii ATCC19606 […] 7.4 / MIC A. baumannii ATCC19606 Full MH 7.4: pH 7.4
Method in brief: as §1

P. aeruginosa PAO1 [2] = conditions: for MIC P. aeruginosa PAO1, full MH at pH 7.4: PAO1, 4 h; for MIC P. aeruginosa PAO1 […] 7.4 / MIC P. aeruginosa PAO1 […] 8.5 / MIC P. aeruginosa PAO1 Full MH 7.4 / MIC P. aeruginosa PAO1 Full MH 8.5: Table S2; for MIC P. aeruginosa PAO1 […] 7.4 / MIC P. aeruginosa PAO1 […] 8.5: […] MH; for MIC P. aeruginosa PAO1, full MH at pH 7.4 / MIC P. aeruginosa PAO1 […] 7.4 / MIC P. aeruginosa PAO1 Full MH 7.4: pH 7.4; for MIC P. aeruginosa PAO1 […] 8.5 / MIC P. aeruginosa PAO1 Full MH 8.5: pH 8.5
Method in brief: as §1

P. aeruginosa PAO1 [3] = experiment: DiSC3(5) inner membrane depolarization assay; assay type: cell-based, Pseudomonas aeruginosa; conditions: P. aeruginosa PAO1, 2 μM DiSC3(5)
Experimental: Figure 5 Interactions of peptide–peptoid hybrids with bacterial outer and inner membranes of P. aeruginosa. (a, b) NPN outer membrane permeability assay. P. aeruginosa PAO1 bacteria were treated with increasing compound concentrations in the presence of 10 μM NPN. The fluorescence intensity (λex = 340 nm, λem = 415 nm) was measured within 5 min. Data represent the mean ± SD, n = 3. (c, d) DiSC3(5) inner membrane depolarization assay. P. aeruginosa PAO1 cells were treated with increasing compound concentrations in the presence of 2 μM DiSC3(5). The fluorescence intensity (λex = 610 nm, λem = 660 nm) was measured within 5 min after treatment, and the data represent mean ± SD, n = 3.
A single colony of P. aeruginosa PAO1 and E. coli W3110 was grown overnight with shaking (150 rpm) in LB broth (5 mL) at 37 °C. A 100 μL portion of the overnight culture was regrown in 10 mL of LB broth with shaking (200 rpm) to the exponential phase (OD600 = 1, corresponding to 10^9 CFU/mL). Bacteria were washed once with HEPES buffer (5 mM HEPES, 5 mM glucose, pH 7.4) and diluted to an OD600 = 0.5. Stock solution of 10 mM of 3,3′-dipropylthiadicarbocyanine iodide (DiSC3(5), purchased from Sigma) was prepared in DMSO. Stock solutions of 2 mg/mL of the compounds were prepared in sterilized milli-Q water and diluted to the beginning concentration of 128 μg/mL in 200 μL of HEPES buffer containing 4 μM of the fluorescent probe DiSC3(5). The diluted samples were added to the first well of 96-well plates (black wells, flat bottom, BRAND GmbH Wertheim, Germany) and diluted serially by 1/2. 100 μL of the bacterial suspension in HEPES buffer (without fluorophore) was added to each well. In this case, the final OD of bacteria was 0.25, the final concentration of peptide in the first column was 64 μg/mL, and DiSC3(5) was 2 μM. The control wells are buffer containing DiSC3(5) and bacterial suspension containing DiSC3(5) in HEPES buffer. The plate was measured with a Tecan instrument Infinite M1000 within 5 min. […] The assay was measured in triplicate and repeated at least two times.[65],[75]

[4] = Lipid vesicle leakage assay; conditions: 10 mM TRIS, 107 mM NaCl, pH 7.4; for Vesicle leakage activity on EYPC vesicles: egg yolk phosphatidyl choline vesicles; for Vesicle leakage activity on EYPG vesicles: fluorescein-loaded anionic EYPG vesicles
Experimental: (c) Vesicle leakage assay for a selection of compounds.
EYPG - EB11 1 EYPC - EB11
Figure S2: Vesicle leakage experiments using 5(6)-carboxyfluorescein induced by peptides. EYPG and EYPC
compound was added after 45 sec. After 240 seconds, 30 µL Triton X-100 1.2% was added for full release of […]

| Compound | CD %α with 5 mM DPC ([1]; DichroWeb, Contin-LL) [%] | CD %α with 20% TFE ([1]; DichroWeb, Contin-LL) [%] | CD %α with 5 mM DPC ([1]; Table S2) [%] | CD %α with 20% TFE ([1]; Table S2) [%] | MIC K. pneumoniae NCTC418, full MH at pH 7.4 (K. pneumoniae NCTC418; NCTC418, 4 h) [ug/mL] | MIC K. pneumoniae NCTC418, full MH at pH 8.5 (K. pneumoniae NCTC418; NCTC418, 4 h) [ug/mL] | MIC K. pneumoniae NCTC418 […] 7.4 (K. pneumoniae NCTC418; Table S2) [µg/mL] | MIC K. pneumoniae NCTC418 […] 8.5 (K. pneumoniae NCTC418; Table S2) [µg/mL] | MIC K. pneumoniae NCTC418 Full MH 7.4 (K. pneumoniae NCTC418; Table S2, full MH) [µg/mL] | MIC A. baumannii ATCC19606, full MH at pH 7.4 (A. baumannii ATCC19606; ATCC19606, 4 h) [ug/mL] | MIC A. baumannii ATCC19606 […] 7.4 (A. baumannii ATCC19606) [µg/mL] | MIC A. baumannii ATCC19606 […] 8.5 (A. baumannii ATCC19606; pH 8.5) [µg/mL] | MIC A. baumannii ATCC19606 Full MH 7.4 (A. baumannii ATCC19606) [µg/mL] | MIC A. baumannii ATCC19606 Full MH 8.5 (A. baumannii ATCC19606; pH 8.5) [µg/mL] | MIC P. aeruginosa PAO1, full MH at pH 7.4 (P. aeruginosa PAO1 [2]) [ug/mL] | MIC P. aeruginosa PAO1 […] 7.4 (P. aeruginosa PAO1 [2]) [µg/mL] | MIC P. aeruginosa PAO1 […] 8.5 (P. aeruginosa PAO1 [2]) [µg/mL] | MIC P. aeruginosa PAO1 Full MH 7.4 (P. aeruginosa PAO1 [2]) [µg/mL] | MIC P. aeruginosa PAO1 Full MH 8.5 (P. aeruginosa PAO1 [2]) [µg/mL] | Inner membrane depolarization (DiSC3(5)) (P. aeruginosa PAO1 [3]) | further results |
| --- | --- | --- | --- | --- | --- | --- | --- | --- | --- | --- | --- | --- | --- | --- | --- | --- | --- | --- | --- | --- | --- |
| CC(C)C[C@H](NC(=O)CN(CC(C)C)C(=O)[C@H](CC(C)C)NC(=O)CN(CCCCN)C(=O)[C@H](CC(C)C)NC(=O)CN(CC(C)C)C(=O)[C@H](CCCCN)NC(=O)CN(CC(C)C)C(=O)[C@H](CC(C)C)NC(=O)CN(CCCCN)C(=O)[C@@H](N)CCCCN)C(N)=O [EB9, KkLlKlLkLlL] (H-K[Nlys]L[Nleu]K[Nleu]L[Nlys]L[Nleu]L-NH2) | 11 | 13 | 11 | 13 | >32 | >32 | > 32 | 16 (≈ 12.1 µM) | > 32 | >32 | 16 (≈ 12.1 µM) | 8 (≈ 6.05 µM) | > 32 | > 32 | 32 | 4 (≈ 3.03 µM) | 2 (≈ 1.51 µM) | 32 (≈ 24.2 µM) | > 32 | partly depolarized the inner membrane | Time–kill, killing profile (E. coli W3110; E. coli W3110, diluted MH at pH 8.5): Bacteria could still be detected after 6 h; MIC K. pneumoniae NCTC418 Full MH 8.5 (K. pneumoniae NCTC418; Table S2, full MH): > 32 µg/mL; MIC A. baumannii ATCC19606, full MH at pH 8.5 (A. baumannii ATCC19606; ATCC19606, 4 h, pH 8.5): >32 ug/mL; Antibacterial activity as a function of NaCl concentration (P. aeruginosa PAO1 [2]; P. aeruginosa PAO1, […] MH at pH 8.5, up to 300 mM NaCl): strongly reduced; Vesicle leakage activity on EYPC vesicles [4]: no activity; Vesicle leakage activity on EYPG vesicles [4]: weak or no vesicle leakage activity; also recorded: inactive |
| CC(C)C[C@H](NC(=O)[C@H](CC(C)C)NC(=O)[C@H](CC(C)C)NC(=O)[C@H](CCCCN)NC(=O)[C@H](CC(C)C)NC(=O)[C@H](CC(C)C)NC(=O)CN(CCCCN)C(=O)[C@H](CC(C)C)NC(=O)[C@H](CC(C)C)NC(=O)CN(CCCCN)C(=O)CNCCCCN)C(N)=O [EB6, kkLLkLLKLLL] (H-[Nlys][Nlys]LL[Nlys]LLKLLL-NH2) | 41 | 35 | 41 | 35 | 8 | 12 | 4 (≈ 3.03 µM) | 2 (≈ 1.51 µM) | 8 (≈ 6.05 µM) | 2 | 2 (≈ 1.51 µM) | 2 (≈ 1.51 µM) | 2 (≈ 1.51 µM) | 8 (≈ 6.05 µM) | 4 | 2 (≈ 1.51 µM) | 4 (≈ 3.03 µM) | 4 (≈ 3.03 µM) | 16 (≈ 12.1 µM) | strongly depolarized the inner membrane | Time–kill, killing profile (E. coli W3110; E. coli W3110, full MH at pH 7.4): completely killed; MIC K. pneumoniae NCTC418 Full MH 8.5 (K. pneumoniae NCTC418; NCTC418, 4 h): 8 to 16 µg/mL; Vesicle leakage activity on EYPC vesicles [4]: very low levels of activity; Vesicle leakage activity on EYPG vesicles [4]: very strong activities |
